Data taken from patent publication US8252796B2, “1-butyl-2-hydroxyaralkyl piperazine derivatives and the uses as anti-depression medicine thereof” (CSPC Zhonggi Pharmaceutical Technology (Shijiazhuang) Co. …, priority 2008, dated 2012).
Values belong to the compound of their own block, whether it stands above or below them.

Legend:
[1] = biological target: T1, DA reuptake, Rat striatum synaptosome (Rattus norvegicus, UniProt P23977); assay: DA reuptake, optical isomers (Example 37); type: biochemical; details: 15 min/37° C.
T1 construct: Rat striatum; from tissue; host or cells: rat striatum synaptosomes
Excerpt: (§1) 3. Experiment Results (IC50 Value was Obtained by Nonlinear Regression Analysis of Inhibition Rate/Concentration Response Curve)

[2] = biological target: T2, NE reuptake, Rat hypothalamus synaptosome (Rattus norvegicus, UniProt Q9WTR4); assay: NE reuptake, optical isomers (Example 37); type: biochemical; details: 20 min/37° C.
T2 construct: hypothalamus; from tissue; host or cells: rat hypothalamus synaptosomes
Excerpt: as §1

[3] = biological target: T3, 5-HT reuptake, Rat brain synaptosome (Rattus norvegicus, UniProt P31652); assay: 5-HT reuptake, optical isomers (Example 37); type: biochemical; details: 15 min/37° C.
T3 construct: Rat brain; from tissue; host or cells: rat brain synaptosomes
Excerpt: as §1

[4] = biological target: T4, reuptake of NA by brain synaptosomes (prefrontal cortex) (Rattus norvegicus, UniProt Q9WTR4); assay: Inhibition of [3H]NA reuptake by rat brain synaptosomes, single concentration (Example 35); type: biochemical; details: test substance 10 μmol/L; inhibitory rate of 0.1 mM venlafaxine taken as 100%
T4 construct: from tissue; host or cells: rat prefrontal cortex synaptosomes
Protocol: (§2) Studies on the reuptake of monoamine neurotransmitters by brain synaptosomes was performed, which is a currently important mean adopted in the worldwide in pharmacological studies of central nervous. This method can not only be used to study the action mechanism of a drug, but also be used for screening new drugs acting by this mechanism.
(§3) Male SD rats were sacrificed by cervical dislocation and then the brains thereof were taken out rapidly by decollation and placed on ice. Related rain tissues (for [^3H]5-HT and [^3H]NA reuptake experiment, prefrontal cortex was taken; for [^3H]DA reuptake experiment, striatum was taken) were separated and weighed. 10 times (V/W) of 0.32 mol/L ice-cold sucrose solution was added and was homogenized electrically with glass-teflon. The homogenate was centrifugated at 4° C. at 1000 g×10 min. Then the supernatant was taken and centrifugated at 4° C. at 17000 g×20 min. The precipitation was suspended in 30 volume of KRH Buffer (125 mM NaCl, 4.8 mM KCl, 1.2 mM CaCl2, 1.2 mM MgSO4, 1.0 mM KH2PO4, 22 mM NaHCO3, 25 mM HEPES, 10 mM Glucose, 10 μM Pargyline, 0.2 mg/ml Ascorbic Acid) and then was preserved in an ice bath for use. (for NA reuptake experiment, the cortex needed was suspended in 20 volume of KRH Buffer)
(§4) Stock solution of the test substance was thawed immediately before use and diluted with KBH Buffer to 100 μmol/L, 50 μl thereof was added in 500 μl of total reaction system, and the final concentration was 10 μmol/L. Then 50 μl suspended synaptic prepared above was added and mixed evenly, incubated in water bath for 30 min at 37° C. Then […] [^3H] 5-HT (50 nmol/L [^3H]DA or […] [^3H]NA) was added. After incubated at 37° C. for 10 min, the reaction system was immediately taken out and the reaction was stopped by adding 2 ml of ice-cold 150 mmol/L Tris-HCl buffer solution. The samples were collected on the circular fiberglass membrane by vacuum filtration, and the membrane was washed 3 times with 3 ml of ice-cold Tris-HCl buffer solution. The filtration membrane was removed, baked for 15 min in a far-infrared oven and placed into an EP tube. 1.5 ml scintillation fluid was added overnight and was tested by liquid scintillation counter. For the solvent control total binding tube and the non-specific binding tube, no test substance was added; for the total binding tube, 50 μl solvent was added.

[5] = Pharmacokinetics and bioavailability, single i.v. and oral administration in SD rat; type: in vivo; details: for bioavailability: oral 50 mg/kg vs i.v. 10 mg/kg
Protocol: To study the pharmacokinetics parameters and the bioavailability of VIII-9, VIII-10 and SIPI5286 when single i.v. and oral administration in SD rat
Eighteen male rats were randomized into 6 groups and were administrated with the three compounds via i.v. and oral route, respectively. The dosage was 10 mg/kg (IV) and 50 mg/kg (PO). The test substance was dissolved in the solution of 5% DMSO/95% HP-β-CD aqueous solution (30%), and were administrated to the animal via i.v. and oral route. Blood plasma was collected at a serial of time points after i.v. and oral administration, and the blood drug concentrations were determined by LC/MS/MS. Then the pharmacokinetics parameters and the bioavailability were calculated based on the blood drug concentrations.

[6] = biological target: T5, reuptake of [3H]DA by striatum synaptosomes (Rattus norvegicus, UniProt P23977); assay: IC50 for inhibiting reuptake of [3H]DA by brain synaptosomes (Example 36); type: biochemical; details: mean, n = 3~4
T5 construct: from tissue; host or cells: rat striatum synaptosomes
Protocol: as §3
(§5) 1. Preparation of Rat Brain Synaptosomes (the Same as Example 35)
(§6) The compounds were used for the studies on inhibition effect (IC50) on reuptake of [^3H]5-HT/NA/DA. At least 5 concentrations each time were settled for each test compound. Each concentration was determined by the average of double twin tubes and the test was repeated for more than 3 times. A series of concentrations of the compounds were prepared by gradient dilution before use. 50 μl thereof was added in total reaction system. Then 50 μl suspended synaptic membrane was added and mixed evenly, incubated in water bath at 37° C. for 30 min. Then 10 nmol/L [^3H] 5-HT (or 50 nmol/L [^3H]DA or 40 nmol/L [^3H]NA) was added and incubated in water bath at 37° C. for 10 min (for [^3H]NA, incubated for 5 min). For the [^3H]5-HT reuptake experiment, 50 μL of fluoxetine (100 μmol/L) was added to the non-specific binding tube; for the [^3H]DA reuptake experiment, 50 μL of cocaine (600 μmol/L) was added to the non-specific binding tube; for the [^3H]NA reuptake experiment, 50 μL of desipramine (100 μmol/L) was added to the non-specific binding tube; for the solvent control, solvent was added to the total binding tube, but no test compound added.
(§7) Sigmoidal curve fitting was performed for the data obtained from all of the test drugs by Origin 6.1, and the IC50 value was calculated.

[7] = biological target: T6, reuptake of 5-HT by brain synaptosomes (prefrontal cortex) (Rattus norvegicus, UniProt P31652); assay: Inhibition of [3H]5-HT reuptake by rat brain synaptosomes, single concentration (Example 35); type: biochemical; details: test substance 10 μmol/L; inhibitory rate of 0.1 mM venlafaxine taken as 100%
T6 construct: from tissue; host or cells: rat prefrontal cortex synaptosomes
Protocol: as §2, §3, §4

[8] = biological target: T7, reuptake of DA by brain synaptosomes (striatum) (Rattus norvegicus, UniProt P23977); assay: Inhibition of [3H]DA reuptake by rat brain synaptosomes, single concentration (Example 35); type: biochemical; details: test substance 10 μmol/L; inhibitory rate of 0.1 mM 6-hydroxy DA taken as 100%
T7 construct: from tissue; host or cells: rat striatum synaptosomes
Protocol: as §2, §3, §4

[9] = biological target: T8, reuptake of [3H]NA by prefrontal cortex synaptosomes (Rattus norvegicus, UniProt Q9WTR4); assay: IC50 for inhibiting reuptake of [3H]NA by brain synaptosomes (Example 36); type: biochemical; details: mean, n = 3~4
T8 construct: from tissue; host or cells: rat prefrontal cortex synaptosomes
Protocol: as §3, §5, §6, §7

ICR mice = assay: Mice Forced Swimming Test (in vivo antidepression activity); details: for swimming test: immobility time: n = 12, mean±SD
mice = assay: Oral administration acute toxicity in mice; details: for mortality (%) / number of died animals: 14 days
[10] = biological target: T9, reuptake of [3H]5-HT by prefrontal cortex synaptosomes (Rattus norvegicus, UniProt P31652); assay: IC50 for inhibiting reuptake of [3H]5-HT by brain synaptosomes (Example 36); type: biochemical; details: mean, n = 3~4
T9 construct: from tissue; host or cells: rat prefrontal cortex synaptosomes
Protocol: as §3, with “The precipitation was suspended in 30 volume of KRH Buffer (125 mM NaCl, 4.8 mM KCl, 1.2 mM CaCl2, 1.2 mM MgSO4, 1.0 mM KH2PO4, 22 mM NaHCO3, 25 mM HEPES, 10 mM Glucose, 10 μM Pargyline, 0.2 mg/ml Ascorbic Acid) and then was preserved in an ice bath for use.” left out
as §6, §7

[11] = one week oral administration, 10.4 mg/kg
[12] = one week oral administration, 17.3 mg/kg
[13] = one week oral administration, 28.8 mg/kg
[14] = one week oral administration, 48 mg/kg
[15] = single oral administration, 10.4 mg/kg
[16] = single oral administration, 17.3 mg/kg
[17] = single oral administration, 28.8 mg/kg
[18] = single oral administration, 48 mg/kg

T3 sequence (P31652 whole entry): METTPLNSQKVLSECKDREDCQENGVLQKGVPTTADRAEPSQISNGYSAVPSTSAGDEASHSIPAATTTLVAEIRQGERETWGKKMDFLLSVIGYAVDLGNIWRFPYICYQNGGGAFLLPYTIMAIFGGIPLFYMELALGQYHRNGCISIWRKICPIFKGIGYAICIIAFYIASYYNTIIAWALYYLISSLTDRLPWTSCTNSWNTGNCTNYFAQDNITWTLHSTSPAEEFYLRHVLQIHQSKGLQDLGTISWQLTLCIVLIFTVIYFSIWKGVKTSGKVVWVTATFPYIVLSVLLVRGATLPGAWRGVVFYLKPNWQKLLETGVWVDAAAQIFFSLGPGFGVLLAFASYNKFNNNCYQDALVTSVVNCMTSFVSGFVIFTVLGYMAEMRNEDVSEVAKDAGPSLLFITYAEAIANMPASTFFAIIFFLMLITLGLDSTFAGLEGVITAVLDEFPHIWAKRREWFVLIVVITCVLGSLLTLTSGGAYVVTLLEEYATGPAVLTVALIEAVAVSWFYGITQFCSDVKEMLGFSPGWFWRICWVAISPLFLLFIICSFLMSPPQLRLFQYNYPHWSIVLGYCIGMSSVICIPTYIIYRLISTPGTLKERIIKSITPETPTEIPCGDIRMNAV
T1 sequence (P23977 whole entry): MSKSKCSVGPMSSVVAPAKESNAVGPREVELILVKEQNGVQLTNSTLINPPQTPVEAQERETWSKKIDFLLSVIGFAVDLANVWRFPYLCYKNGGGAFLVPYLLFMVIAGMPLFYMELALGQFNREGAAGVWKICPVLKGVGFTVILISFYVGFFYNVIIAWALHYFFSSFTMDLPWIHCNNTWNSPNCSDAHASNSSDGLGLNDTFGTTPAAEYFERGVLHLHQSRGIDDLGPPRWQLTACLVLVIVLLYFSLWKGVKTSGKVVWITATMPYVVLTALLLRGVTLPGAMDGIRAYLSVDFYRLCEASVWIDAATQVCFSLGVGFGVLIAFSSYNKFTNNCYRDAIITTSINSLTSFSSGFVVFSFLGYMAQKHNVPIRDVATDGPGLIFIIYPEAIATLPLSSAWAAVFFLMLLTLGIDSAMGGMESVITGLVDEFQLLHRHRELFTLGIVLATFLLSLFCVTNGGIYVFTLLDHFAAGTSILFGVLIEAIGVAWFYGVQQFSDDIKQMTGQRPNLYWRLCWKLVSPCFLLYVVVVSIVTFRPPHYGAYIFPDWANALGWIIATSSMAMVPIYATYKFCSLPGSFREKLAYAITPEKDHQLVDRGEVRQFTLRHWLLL
T2 sequence (Q9WTR4 1-597): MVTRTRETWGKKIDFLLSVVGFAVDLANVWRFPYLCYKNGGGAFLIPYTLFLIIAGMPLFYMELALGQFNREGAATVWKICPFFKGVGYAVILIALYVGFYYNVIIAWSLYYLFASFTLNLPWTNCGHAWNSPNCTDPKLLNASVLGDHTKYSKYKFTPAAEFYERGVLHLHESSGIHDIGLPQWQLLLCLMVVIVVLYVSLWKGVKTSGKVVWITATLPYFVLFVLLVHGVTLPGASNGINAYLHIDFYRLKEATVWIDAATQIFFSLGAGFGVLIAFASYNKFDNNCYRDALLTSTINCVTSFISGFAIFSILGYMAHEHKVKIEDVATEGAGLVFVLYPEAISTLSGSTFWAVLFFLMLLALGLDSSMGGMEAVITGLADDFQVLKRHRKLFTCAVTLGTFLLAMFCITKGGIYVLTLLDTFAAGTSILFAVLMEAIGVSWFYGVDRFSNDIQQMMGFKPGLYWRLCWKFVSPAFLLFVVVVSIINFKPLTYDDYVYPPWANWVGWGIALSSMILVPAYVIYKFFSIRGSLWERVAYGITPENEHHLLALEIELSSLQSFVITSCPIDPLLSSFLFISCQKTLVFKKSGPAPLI
T9 sequence (P31652 whole entry): as the sequence (P31652 whole entry) above
T6 sequence (P31652 whole entry): as above
T7 sequence (P23977 whole entry): as the sequence (P23977 whole entry) above
T5 sequence (P23977 whole entry): as above
T4 sequence (Q9WTR4 1-597): as the sequence (Q9WTR4 1-597) above
T8 sequence (Q9WTR4 1-597): as above

- IC50 [1]: 1.1 µM
- IC50 [2]: 1.2 µM
- IC50 [3]: 1.2 µM
Compound: CCCCC(C(O)c1ccc2c(Cl)c(OC)ccc2c1)N1CCN(Cc2ccccc2)CC1 [IX-26, (1R,2R)-N^1-benzyl-N^4-[1-butyl-2-(5′-chloro-6′-methoxyl-2′-naphthyl)hydroxyethyl]piperazine]

Compound: CCCC[C@H]([C@H](O)c1ccc2c(Cl)c(OC)ccc2c1)N1CCN(Cc2ccccc2)CC1 (racemic) [VIII-10, (1SR,2SR)-N^1-benzyl-N^4-[1-butyl-2-(5′-chloro-6′-methoxyl-2′-naphthyl)hydroxyethyl]piperazine]
- inhibition on the reuptake of NA(%) [4]: 145%
- AUC (0-t) ([5]; i.v. 10 mg/kg): 2932.05 ng·h/mL
- half life (T½) ([5]; i.v. 10 mg/kg): 9.06 h
- Cmax ([5]; i.v. 10 mg/kg, (5 min)): 2998.49 ng/mL
- AUC (0-t) ([5]; oral 50 mg/kg): 5552.24 ng·h/mL
- Cmax ([5]; oral 50 mg/kg): 727.20 ng/mL
- Tmax ([5]; oral 50 mg/kg): 1.67 h
- half life (T½) ([5]; oral 50 mg/kg): 16.41 h
- bioavailability [5]: 63.78%
- IC50 [6]: 0.165 µM
- Inhibition on the reuptake of 5-HT(%) [7]: 136%
- inhibition on the reuptake of DA(%) [8]: 133%
- IC50 [9]: 4.73 µM
- swimming test: immobility time (ICR mice; [11]): 77.6 ± 24.69 s
- swimming test: immobility time (ICR mice; [12]): 78.2 ± 25.63 s
- swimming test: immobility time (ICR mice; [13]): 51.9 ± 51.23 s
- swimming test: immobility time (ICR mice; [14]): 68.3 ± 34.01 s
- ED50 swimming test (ICR mice; single oral administration): 11.8 mg/kg
- swimming test: immobility time (ICR mice; [15]): 81.8 ± 39.34 s
- swimming test: immobility time (ICR mice; [16]): 43.4 ± 35.41 s
- swimming test: immobility time (ICR mice; [17]): 40.8 ± 40.24 s
- swimming test: immobility time (ICR mice; [18]): 64.4 ± 43.01 s
- mortality (%) (mice; oral 507.8 mg/kg): 0.00%
- number of died animals (mice; oral 507.8 mg/kg): 0
- mortality (%) (mice; oral 781.2 mg/kg): 33.3%
- number of died animals (mice; oral 781.2 mg/kg): 2
- mortality (%) (mice; oral 1201.9 mg/kg): 66.7%
- number of died animals (mice; oral 1201.9 mg/kg): 4
- mortality (%) (mice; oral 1849.1 mg/kg): 83.3%
- number of died animals (mice; oral 1849.1 mg/kg): 5
- mortality (%) (mice; oral 2844.7 mg/kg): 100%
- number of died animals (mice; oral 2844.7 mg/kg): 6
- LD50 (95% confidential limit) (mice; oral, male & female, Bliss method): 1048.5 (751.33˜1433.7) mg/kg
- IC50 [10]: 0.272 µM

- IC50 [1]: 0.67 µM
- IC50 [2]: 0.14 µM
- IC50 [3]: 0.83 µM
Compound: CCCCC(C(O)c1ccc2c(Cl)c(OC)ccc2c1)N1CCN(Cc2ccccc2)CC1 [IX-25, (1R,2S)-N^1-benzyl-N^4-[1-butyl-2-(5′-chloro-6′-methoxyl-2′-naphthyl)hydroxyethyl]piperazine]

- IC50 [1]: 1 µM
- IC50 [2]: 2.1 µM
- IC50 [3]: 1.9 µM
Compound: CCCCC(C(O)c1ccc2c(Cl)c(OC)ccc2c1)N1CCN(Cc2ccccc2)CC1 (single isomer, unassigned) [IX-23]

Compound: CCCC[C@H]([C@@H](O)c1ccc2c(Cl)c(OC)ccc2c1)N1CCN(Cc2ccccc2)CC1 (racemic) [VIII-9, (1SR,2RS)-N^1-benzyl-N^4-[1-butyl-2-(5′-chloro-6′-methoxyl-2′-naphthyl)hydroxyethyl]piperazine]
- inhibition on the reuptake of NA(%) [4]: 155.2%
- AUC (0-t) ([5]; i.v. 10 mg/kg): 4060.59 ng·h/mL
- half life (T½) ([5]; i.v. 10 mg/kg): 7.83 h
- Cmax ([5]; i.v. 10 mg/kg, (5 min)): 2640.94 ng/mL
- AUC (0-t) ([5]; oral 50 mg/kg): 3345.73 ng·h/mL
- Cmax ([5]; oral 50 mg/kg): 352.27 ng/mL
- Tmax ([5]; oral 50 mg/kg): 1.50 h
- half life (T½) ([5]; oral 50 mg/kg): 5.89 h
- bioavailability [5]: 16.32%
- IC50 [6]: 0.0021 µM
- Inhibition on the reuptake of 5-HT(%) [7]: 125%
- inhibition on the reuptake of DA(%) [8]: 117%
- IC50 [9]: 0.0028 µM
- swimming test: immobility time (ICR mice; [11]): 93.4 ± 26.71 s
- swimming test: immobility time (ICR mice; [12]): 82.1 ± 44.06 s
- swimming test: immobility time (ICR mice; [13]): 87.2 ± 40.07 s
- swimming test: immobility time (ICR mice; [14]): 91.5 ± 58.14 s
- ED50 swimming test (ICR mice; single oral administration): 34.3 mg/kg
- swimming test: immobility time (ICR mice; [15]): 74.3 ± 46.63 s
- swimming test: immobility time (ICR mice; [16]): 119.4 ± 28.02 s
- swimming test: immobility time (ICR mice; [17]): 77.4 ± 53.81 s
- swimming test: immobility time (ICR mice; [18]): 104.3 ± 75.81 s
- mortality (%) (mice; oral 507.8 mg/kg): 0%
- number of died animals (mice; oral 507.8 mg/kg): 0
- mortality (%) (mice; oral 781.2 mg/kg): 0%
- number of died animals (mice; oral 781.2 mg/kg): 0
- mortality (%) (mice; oral 1201.9 mg/kg): 0%
- number of died animals (mice; oral 1201.9 mg/kg): 0
- mortality (%) (mice; oral 1849.1 mg/kg): 0%
- number of died animals (mice; oral 1849.1 mg/kg): 0
- mortality (%) (mice; oral 2844.7 mg/kg): 0%
- number of died animals (mice; oral 2844.7 mg/kg): 0
- IC50 [10]: 0.0733 µM

- IC50 [1]: 1.1 µM
- IC50 [2]: 1.4 µM
- IC50 [3]: 3.1 µM
Compound: CCCCC(C(O)c1ccc2c(Cl)c(OC)ccc2c1)N1CCN(Cc2ccccc2)CC1 (single isomer, unassigned) [IX-24]
